“Also recorded” adds a separate entry of the source.
Columns and labels:
[1] = system: excitatory and inhibitory terminals; settings: short treatment (2-24 hr)
[2] = system: GluR1; assay: quantitative Western blotting of hippocampal homogenate; format: in vivo, rat; settings: baclofen 0.07 mg/kg/day in drinking water, 4 months; rats' hippocampus
Description: (§1) Quantitative Western blotting. Samples of hippocampal homogenate (10 ug/sample) were resolved on polyacrylamide gels, transferred to PVDF, and probed with anti-NR1 (Chemicon), NR2A (Upstate) or NR2B (Santa Cruz Biotech), GluR1 (Chemicon), Synapsin1 (American Qualex), or PSD-95 (Upstate) antibody followed by the appropriate secondary antibody coupled to horseradish peroxidase (1:10,000, Santa Cruz Biotech) in Tris-buffered saline (pH 7.3) containing 5% dry milk and 0.1% Tween (BioRad). Visualization of immunoreactive bands was achieved by enhanced chemiluminescence (Perkin Elmer Biosciences) and captured on autoradiography film (Kodak Scientific). Standard curves, in which the amount of protein was varied systematically, were constructed to establish that we operated within the linear range of the chemiluminescence detection method. In addition, each immunoblot was exposed to autoradiography film multiple times (average 7; minimum 5) for varying duration to make sure we operated in the linear range of the film for each experiment. Digital images, produced by scanning films on a Epson 3200 Scanner (Epson) with Epson Scan Software (Epson), were quantified using GelPro Analyzer 3.1 software. The integrated optical density (IOD) of each immunoreactive band from hippocampal samples relative to baseline measured immediately above and below the band in the same lane, and normalized by the actin or neurofilament band also in the same lane. Group data (eight animals per group) are represented as the mean+/−SEM of the IOD of samples.

[3] = system: NR2B; assay: as above; format: in vivo, rat
Description: as §1

[4] = general status of treated rats; settings: chronic treatment in drinking water, 4 months
[5] = target: NMDA receptors (NR2B-containing) (Rattus norvegicus, UniProt P35439+Q00960); assay: evoked NMDA currents ([…]), double-perforated patch; format: cell-based
Chain of NMDA receptors (NR2B-containing) (Q00960 27-1482, other chains not shown): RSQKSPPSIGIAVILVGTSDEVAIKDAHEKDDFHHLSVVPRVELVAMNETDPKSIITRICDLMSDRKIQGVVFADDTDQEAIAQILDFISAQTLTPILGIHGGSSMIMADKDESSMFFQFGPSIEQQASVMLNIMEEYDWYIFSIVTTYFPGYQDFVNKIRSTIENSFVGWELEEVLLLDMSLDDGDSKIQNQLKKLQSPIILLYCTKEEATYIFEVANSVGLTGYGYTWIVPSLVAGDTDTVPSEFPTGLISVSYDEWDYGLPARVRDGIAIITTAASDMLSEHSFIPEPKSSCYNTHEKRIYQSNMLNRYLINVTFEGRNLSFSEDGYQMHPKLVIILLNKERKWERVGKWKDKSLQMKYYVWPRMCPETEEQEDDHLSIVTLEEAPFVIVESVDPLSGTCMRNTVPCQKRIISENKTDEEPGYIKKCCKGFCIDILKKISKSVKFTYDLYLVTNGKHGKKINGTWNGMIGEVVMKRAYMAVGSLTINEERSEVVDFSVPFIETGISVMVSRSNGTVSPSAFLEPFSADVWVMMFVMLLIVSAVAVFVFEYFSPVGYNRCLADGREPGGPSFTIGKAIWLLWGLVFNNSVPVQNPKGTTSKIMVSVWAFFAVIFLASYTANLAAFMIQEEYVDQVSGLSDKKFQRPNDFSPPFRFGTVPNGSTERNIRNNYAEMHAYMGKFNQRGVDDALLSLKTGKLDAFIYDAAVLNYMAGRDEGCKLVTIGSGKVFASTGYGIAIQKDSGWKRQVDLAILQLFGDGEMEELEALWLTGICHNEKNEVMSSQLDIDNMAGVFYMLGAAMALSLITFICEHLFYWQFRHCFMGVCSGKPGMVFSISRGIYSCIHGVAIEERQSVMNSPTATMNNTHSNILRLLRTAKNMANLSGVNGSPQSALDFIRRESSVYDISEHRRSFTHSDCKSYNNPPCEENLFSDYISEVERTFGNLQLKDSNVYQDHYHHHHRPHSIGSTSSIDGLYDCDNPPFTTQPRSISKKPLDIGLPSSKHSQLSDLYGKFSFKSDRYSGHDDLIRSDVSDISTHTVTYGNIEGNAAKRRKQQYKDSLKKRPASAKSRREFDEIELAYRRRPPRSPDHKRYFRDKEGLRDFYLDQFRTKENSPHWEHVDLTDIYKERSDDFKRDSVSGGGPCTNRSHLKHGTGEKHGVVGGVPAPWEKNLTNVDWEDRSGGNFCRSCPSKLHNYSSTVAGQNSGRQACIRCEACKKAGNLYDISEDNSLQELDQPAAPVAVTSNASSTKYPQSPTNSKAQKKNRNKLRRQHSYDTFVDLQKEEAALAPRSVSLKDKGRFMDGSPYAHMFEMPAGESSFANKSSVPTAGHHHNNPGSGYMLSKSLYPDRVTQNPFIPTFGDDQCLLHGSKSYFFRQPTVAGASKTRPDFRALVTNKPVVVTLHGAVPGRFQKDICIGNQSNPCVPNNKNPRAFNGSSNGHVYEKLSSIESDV
Description: Electrophysiology. Dual whole cell perforated patch clamp recordings were made on two interconnected cultured hippocampal pyramidal neurons. Perforated patch pipettes were front-filled with a solution containing (in mM): CsOH, 127; D-gluconic acid, 127; CsCl, 4; HEPES, 10; NaCl, 8; EGTA, 0.4; pH was adjusted to 7.25 with CsOH, and then back-filled with the same solution containing […] amphotericin B (Sigma, St. Louis, Mo.). Extracellular solution contained (in mM): NaCl, 145; KCl, 3; glucose, 15; HEPES, 10; MgCl2, 0.8-1.2; CaCl2, 1.2; 0.005 glycine (Sigma), 0.05 picrotoxin (Sigma); pH adjusted to 7.4 with NaOH. MgCl2 concentration was matched to its concentration in culture medium. In experiments where effects of drugs on neuronal activity were quantified (FIG. 4D), recordings were done in culture medium (with HEPES replacing bicarbonate/CO2 to maintain pH). All experiments were performed at room temperature. For assaying synaptic connectivity, each neuron was stimulated by 1 ms step depolarization from −70 to +30 mV in voltage-clamp mode. Only neurons with monosynaptic connections were used. […] Recordings with access resistance>20 MΩ or that varied substantially were rejected from analysis.
We hypothesized that one target may be the number and properties of NMDA receptors at individual synapses.

[6] = system: presynaptic terminals of cultured hippocampal neurons; assay: TBS-induced presynaptic plasticity measured by FM 1-43 dye uptake in hippocampal cultures; format: cell-based, rat

SMILES: NCC(CC(=O)O)c1ccc(Cl)cc1 (stereo not shown) [baclofen, 4-amino-3-(4-chlorophenyl) butanoic acid]
- change of synaptic density [1]: No short treatment (2-24 hr, baclofen, nimodepine, NBQX, and TTX) produced a significant change of synaptic density
- GLUR1 expression level [2]: significant enhancement; also recorded: increases expression level
- NR2B expression level ([3]; baclofen 0.07 mg/kg/day in drinking water, 4 months, rats' hippocampus): significant enhancement; also recorded: increases expression level
- increase in levels of NR2B protein ([3]; baclofen treatment (FIG. 10)): approximately 60%
- general status of the rats (body weight, mobility) [4]: did not observe any significant change in the general status
- τdecay of EPSCNMDA, representative trace ([5]; baclofen-treated neurons, FIG. 7A): 200 ms
- τdecay of EPSCNMDA, average ([5]; baclofen-treated neurons, N=6): 176 ± 30 ms
- ifenprodil-sensitivity of EPSCNMDA in treated versus control cultures ([5]; ifenprodil 3 μM, baclofen 10 μM 6 hours or 1.2 mM Mg): triggered increased sensitivity of the EPSCNMDA to ifenprodil; also recorded: more sensitive to ifenprodil; also recorded: increases the sensitivity of EPSCNMDA to ifenprodil
- effect of theta-burst induction in treated cultures ([6]; 4-6 hours treatment, baclofen 20 μm, NBQX 1 μm, flunitrazepam 5 μm): Both the number of functional synapses and the probability of release increased
- plasticity of presynaptic terminals (S2/S1) ([6]; baclofen 10 μM, short term (4-6 hours) and long term (48 hours)): induced enhancement of plasticity for both short term (4-6 hours) and long term (48 hours) periods of time; also recorded: enhances plasticity of presynaptic terminals

Source: patent US20060089335A1, “Compositions and methods for enhancing cognitive function and synaptic plasticity” (priority 2003, published 2006)
